Assay results: patent US20140228279A1, “CATIONIC PEPTIDOPOLYSACCHARIDES WITH EXCELLENT BROAD- SPECTRUM ANTIMICROBIAL ACTIVITIES AND HIGH SELECTIVITY” (priority 2011, published 2014)
Converted amounts (≈) assume the structure as drawn. “Also recorded” adds a separate entry of the source. Like-named read-outs stand apart in the source and are kept apart here.

What was measured:
human red blood cells [1] = conditions: cited from earlier work
[2] = test system: Escherichia coli (ATCC8739); conditions: comparator agents (#3A-#6E), previously reported; cited from earlier work
[3] = test system: E. coli, P. aeruginosa, S. aureus, C. albicans, F. solani cells; experiment: Morphology study of microorganisms (FESEM); assay type: cell-based; conditions: at MIC concentration, 15 min treatment, compared with intact controls
Protocol: After incubation the microbes were immediately fixed with glutaraldehyde (2.5%, 5 ml) solution for 4 hr. Following dehydration in a graded ethanol series (20%-100%) and drying under a nitrogen flow, the samples were coated with platinum and imaged with FESEM (JEOL JSM-6700F) for microbe morphology changes.

[4] = test system: SMCs and E. coli co-culture; experiment: Co-culture of bacteria and mammalian cells; assay type: cell-based; conditions: 100 μg ml^−1, 6 h after inoculation of 1×10^5 E. coli
Protocol: SMCs were cultured in 96-well plates from inocula of 1×10^5 cells in each well and incubated at 37° C. for 24 h in a culture medium free of any antibiotics. 1×10^5 cells E. coli was seeded in the SMC culture wells. Then CS-g-K16 was added in the SMC and E. coli co-culture wells at a concentration of 100 μg ml^−1. Wells without CS-g-K16 were used as a control. The co-culture was imaged using an inverted optical microscope (Carl Zeiss, Germany).

[5] = test system: all tested bacteria and fungi (P. aeruginosa, E. coli, S. aureus, C. albicans, F. solani); experiment: MIC, summarised over all pathogens tested; assay type: cell-based; conditions: for MICs for all pathogens tested: range over Gram-negative, Gram-positive bacteria and fungi
Protocol: (§1) Bacteria cells were grown overnight at 37° C. in MH broth to a mid-log phase and diluted to 10^4 to 10^5 CFU ml^−1. A twofold dilution series of 100 μl product solution in MH broth (YM broth for the fungi C. albicans and F. solani) was made on 96-well microplate, followed by the addition of 100 μl bacterial suspension (10^4 to 10^5 CFU mL^−1). The plates were incubated at 37° C. for 18-24 h (28° C., 36-48 h for fungi), and the absorbance at 600 nm was measured with a microplate reader (BIO-RAD, US). Positive control was without product, and negative control was without bacteria/fungi inoculum. MICs were determined as the lowest concentration that inhibited cell growth by more than 90%.

E. coli membrane = experiment: Membrane depolarization, DiSC3(5) dye leakage; assay type: cell-based, Escherichia coli; conditions: 100 μg ml^−1
Protocol: Bacteria were harvested at mid-log phase, washed three times with a buffer solution of 20 mM glucose and 5 mM HEPES (pH 7.4). The bacteria was resuspended in the washing buffer with additional 0.1 M KCl, then incubated with DiSC3(5) (20 nM) until it was incorporated into the cell membrane. The CS-g-K16 was added at a concentration of 100 μg ml^−1, and the fluorescence was monitored with a fluorescence spectrometer (PerkinElmer LS55, U.S.) at λex=620 nm and λem=670 nm. Finally, 0.2 nM Gramicidin D was added to obtain the full release of the dye.

[6] = test system: Escherichia coli (ATCC8739); experiment: Minimal inhibitory concentration (MIC), twofold broth dilution; assay type: cell-based; conditions: Gram-negative; lowest concentration inhibiting growth by more than 90%
Protocol: as §1

[7] = test system: Staphylococcus aureus (ATCC6538); experiment: as above; assay type: cell-based; conditions: Gram-positive; lowest concentration inhibiting growth by more than 90%
Protocol: as §1

[8] = test system: Pseudomonas aeruginosa (ATCC9027); experiment: as above; assay type: cell-based; conditions: Gram-negative; lowest concentration inhibiting growth by more than 90%
Protocol: as §1

[9] = test system: Candida albicans (ATCC10231); experiment: as above; assay type: cell-based; conditions: fungi; lowest concentration inhibiting growth by more than 90%
Protocol: as §1

[10] = test system: Fusarium solani (ATCC36031); experiment: as above; assay type: cell-based; conditions: fungi; lowest concentration inhibiting growth by more than 90%
Protocol: as §1

E. coli = experiment: LIVE/DEAD bacterial viability assay; assay type: cell-based, Escherichia coli; conditions: at MIC concentration, 15 min at 37° C.
Protocol: LIVE/DEAD assay was carried out using CS-g-K16 with E. coli. […] After incubation the cells were collected by centrifugation and stained with BacLight bacterial viability kit L13152 (Invitrogen) for 30 min at room temperature. The cells were then imaged with fluorescence microscopy (Carl Zeiss, Germany).

human red blood cells [11] = experiment: Hemolysis assay; assay type: cell-based; conditions: for HC50 (the concentration which is 50% hemolytic): human erythrocytes, 1 h at 37° C.
Protocol: Fresh human blood (5 ml) was collected from a healthy donor. Erythrocytes were separated by centrifugation at 1000 rpm for 10 min, washed three times with Tris buffer (10 mM Tris, 150 mM NaCl, pH 7.2) and diluted to final concentration (5%, v/v). 50 μl of antimicrobial solution at different concentrations mixed with 50 μl erythrocytes stock were added to a 96-well microplate and incubated for 1 h at 37° C. with 150 rpm shaking. The microplate were centrifuged at 1,000 rpm for 10 min. 80 μl aliquots of the supernatant were then transferred to a new 96-well microplate and diluted with another 80 μl of Tris buffer. Hemolysis was measured as the absorbance at 540 nm with a microplate reader (BIO-RAD, US). Complete hemolysis was determined in Tris buffer plus 0.1% Triton x-100 as positive control, while Tris buffer was used as negative control. The percentage of hemolysis (H) was calculated using the following equation: Hemolysis=[(Op−Ob)/(Ot−Ob)]×100%, where Op is the density for a given antimicrobial agent concentration, Ob is the density for the buffer, and Ot is the density for the Triton x-100 positive control.

[12] = test system: the three bacteria (P. aeruginosa, E. coli, S. aureus); experiment: MIC, summarised over the bacterial pathogens; assay type: cell-based; conditions: for MIC against the bacterial pathogens: lower bound over the three bacteria
Protocol: as §1

Compound | MIC E. coli [6] [µg/mL] | MIC S. aureus [7] [µg/mL] | MIC P. aeruginosa [8] [µg/mL] | MIC C. albicans [9] [µg/mL] | MIC F. solani [10] [µg/mL] | other results
Magainin-2 | – | – | – | – | – | HC50 (the concentration which is 50% hemolytic) (human red blood cells [1]): >250 µg/mL; MIC E. coli [2]: 125 µg/mL
chitosan-graft-polylysine [CS-g-K16] | 10 | 10 | 20 | 20 | 5 | morphology of microbial cells (FESEM) [3]: exhibit obvious morphological changes; bacterial growth and SMCs growth in co-culture [4]: inhibits the bacterial growth but permits SMCs growth; also recorded: bacteria were inhibited and SMCs grew well; MICs for all pathogens tested [5]: 5 to 20 µg/mL; MICs against Gram-negative and Gram-positive bacteria and fungi ([5]; range over all pathogens): 5-20 μml^−1; membrane potential sensitive dye DiSC3(5) leakage (E. coli membrane): immediate fluorescence increase; bacterial viability by LIVE/DEAD stain (SYTO 9 / propidium iodide) (E. coli): renders E. coli cell membrane permeable to propidium iodide; HC50 compared with other state-of-the-art antimicrobial polymers (human red blood cells [11]): 3 to 5 orders of magnitude; hemolytic percentage (human red blood cells [11]): below 50%
chitosan-graft-poly(lysine-ran-phenylalanine) [CS-g-K12.5F12.5] | 630 | 1250 | 1250 | 310 | 80 | increase of MICs compared with P(K12.5F12.5) (#5B) ([12]; for the three bacteria): more than 5 times; MIC against the bacterial pathogens [12]: ≥ 630 µg/mL; HC50 (the concentration which is 50% hemolytic) (human red blood cells [11]): 7500 µg/mL
chitosan-graft-polylysine [CS-g-K25] | 10 | 10 | 40 | 20 | 5 | –
chitosan-graft-polylysine [CS-g-K3] | 20 | 40 | 20 | 20 | 10 | –
chitosan-graft-poly(lysine-ran-phenylalanine) [CS-g-K8F8] | >2500 | 2500 | >2500 | >2500 | 160 | MIC against the bacterial pathogens [12]: ≥ 2500 µg/mL; HC50 (the concentration which is 50% hemolytic) (human red blood cells [11]): 12500 µg/mL
chitosan-graft-polylysine [CS-g-K3-HMW] | 80 | 160 | 310 | 160 | 40 | MICs relative to those of CS-g-K3 (#1B) ([5]; same grafting ratio of lysine, higher molecular weight chitosan, all five pathogens): ≥ 4 fold
chitosan-graft-polylysine [CS-g-K9] | 10 | 20 | 20 | 20 | 5 | MICs for all pathogens tested [5]: 5 to 20 µg/mL
CC[C@H](C)[C@H](NC(=O)CN)C(=O)NCC(=O)N[C@@H](C)C(=O)N[C@H](C(=O)N[C@@H](CC(C)C)C(=O)N[C@@H](CCCCN)C(=O)N[C@H](C(=O)N[C@@H](CC(C)C)C(=O)N[C@H](C(=O)N[C@H](C(=O)NCC(=O)N[C@@H](CC(C)C)C(=O)N1CCC[C@H]1C(=O)N[C@@H](C)C(=O)N[C@@H](CC(C)C)C(=O)N[C@H](C(=O)N[C@@H](CO)C(=O)N[C@@H](Cc1c[nH]c2ccccc12)C(=O)N[C@H](C(=O)N[C@@H](CCCCN)C(=O)N[C@@H](CCCNC(=N)N)C(=O)N[C@@H](CCCCN)C(=O)N[C@@H](CCCNC(=N)N)C(=O)N[C@@H](CCC(N)=O)C(=O)N[C@@H](CCC(N)=O)C(N)=O)[C@@H](C)CC)[C@@H](C)CC)[C@@H](C)O)[C@@H](C)O)C(C)C)C(C)C [Melittin] | – | – | – | – | – | HC50 (the concentration which is 50% hemolytic) (human red blood cells [1]; comparator agents (#3A-#6E), previously reported): 2 µg/mL; MIC E. coli [2]: 13 µg/mL (≈ 4.57 µM)
chitosan-graft-polylysine [CS-g-K1] | 80 | 160 | 80 | 40 | 40 | –
